From patent publication US4206127A, “5,6-Dihydro analogues of prostaglandin I2” (Miles Laboratories, Inc., priority 1978, dated 1980)

Tests used:
rat gastric secretion = experiment: Effects of Prostaglandin Analogues on Gastric Secretion in the Rat (Test B); assay type: in vivo; conditions: pylorus-ligated rats, subcutaneous 1.5 mg/kg twice (total 3.0 mg/kg), 4 hours
Procedure: B. Evaluation of the Effects of Prostaglandin Analogues on Gastric Secretion in the Rat
A procedure based on that described by Lipmann (J. Pharm. Pharmacol., 21: 335 [1968]) was used to assess the influence of test compounds on gastric secretion. Rats of one sex weighing 150 to 200 g were randomly divided into groups of six animals each and fasted for 48 hours previously to the experiments, water being available ad libitum. The animals were anesthetized with ether, the abdomen was opened through a midline incision and the pylorus was ligated. Test compounds were diluted from stock solution so as to administer a dose of 1.5 mg/kg in a volume equivalent to 1 ml/kg. Subcutaneous injections were applied immediately after surgery and again 2 hours later, so that a total dose of 3.0 mg/kg was administered. Dilutions were made with phosphate buffer (pH 7.38), as recommended by Lee et al. (Prostaglandins 3: 29 [1973]), in order to insure adequate stability of drugs at the subcutaneous depot. […]
Four hours after pyloric ligation the animals were killed with ether, the cardias ligated and stomachs removed. The volume of gastric secretion was measured and the contents centrifuged at 5000 rpm for 10 minutes. […]
Volume and total acid values of the treated group were compared with those of the controls by the "Squared" test. Antisecretory activity was scored according to the following scale: […]

platelet aggregation = conditions: cited from earlier work
blood vessels = conditions: cited from earlier work

Compound	Activity Value, Test B - inhibition of rat gastric secretion (score of % decrease in acidity) (rat gastric secretion)	inhibition of platelet aggregation (platelet aggregation)	destruction of platelet clumps (platelet aggregation; in vitro, clumps already induced to form)	dilation of blood vessels (blood vessels)
9-Deoxy-9a-Homo-6, 9α-epoxy-15S-hydroxyprost-13E-en-1-oic acid [TR-4921]	2 (26-50, significant)			
CCCCC[C@H](O)/C=C/[C@@H]1[C@H]2C/C(=C/CCCC(=O)O)O[C@H]2C[C@H]1O [PGI2, (5Z)-9-deoxy-6, 9α-epoxy-Δ^5-prostaglandin F1α]		the most potent inhibitor of platelet clumping of all the prostaglandins discovered to date	destroys platelet clumps after they have been induced to form	dilates blood vessels dramatically
Ethyl 5, 9β-Epoxy-11α,15-dihydroxy-16,20-methanoprost-13E-en-1-oate [TR-4973]	0 (<26)			
